Results as given in patent US20240342150A1 (priority 2021, published 2024).
Like-named read-outs stand apart in the source and are kept apart here.

Columns and labels:
SARS-CoV-2 (Wuhan) = assay: microbe, parasite or virus in culture; format: cell-based; conditions: Severe acute respiratory syndrome coronavirus 2, Vero C1008
Vero E6 cells = conditions: for % viable cells: not infected Vero E6 cells

O=C(c1ccc(OCCN2CCCCC2)cc1)c1c(-c2ccc(O)cc2)sc2cc(O)ccc12 [Raloxifene, 1-[6-hydroxy-2-(4-hydroxyphenyl)benzo[b]thien-3-yl]-1-[4-[2-(1-piperidinyl)ethoxy]phenyl]methanone]
IC50 (SARS-CoV-2 (Wuhan)): 5.92 µM | % viable cells (Vero E6 cells; Raloxifene 0.23 μM, 48 h): 100% | % viable cells (Vero E6 cells; Raloxifene 0.23 μM, 72 h): 102% | % viable cells (Vero E6 cells; Raloxifene 0.46 μM, 48 h): 95% | % viable cells (Vero E6 cells; Raloxifene 0.46 μM, 72 h): 95% | % viable cells (Vero E6 cells; Raloxifene 0.94 μM, 48 h): 95% | % viable cells (Vero E6 cells; Raloxifene 0.94 μM, 72 h): 96% | % viable cells (Vero E6 cells; Raloxifene 1.87 μM, 48 h): 99% | % viable cells (Vero E6 cells; Raloxifene 1.87 μM, 72 h): 97% | % viable cells (Vero E6 cells; Raloxifene 3.75 μM, 48 h): 93% | % viable cells (Vero E6 cells; Raloxifene 3.75 μM, 72 h): 96% | % viable cells (Vero E6 cells; Raloxifene 7.5 μM, 48 h): 92% | % viable cells (Vero E6 cells; Raloxifene 7.5 μM, 72 h): 97% | % viable cells (Vero E6 cells; Raloxifene 15 μM, 48 h): 86% | % viable cells (Vero E6 cells; Raloxifene 15 μM, 72 h): 76% | effect on cell viability (Vero E6 cells; Raloxifene 15 μM, crystal violet staining): reduced percentage of viable cells | effect on cell viability (Vero E6 cells; lower drug concentrations (7.5 to 0.23 μM)): No significant effect on cell viability
